Experimental data from US20130273183A1, “2-Pyrimidine Thioesters and Thiocarbonates as Skin Brightening Agents” (EASTMAN CHEMICAL COMPANY, priority 2012, published 2013).
Marks after values point to notes of the source that are not given here.

Columns and labels:
[1] = test system: B16-F10 murine melanoma cells; test: Melanogenesis inhibition assay (melanin content, absorbance at 450 nm); type: cell-based; conditions: Mus musculus, 72 h, read-out: Melanogenesis % of control; for activity at 100 µM: 0.1 mmol/L; for activity at 500 µM: 0.5 mmol/L (footnote *); for activity at 1000 µM: 1.0 mmol/L
Protocol: Melanocytes (B16-F10/CRL-6475 murine melanoma cells, purchased from ATCC) were cultured in Dulbecco's Modified Eagle's Medium (DMEM)/Ham's F-12 50:50 mix with L-glutamine w/out phenol red/10% (v/v) newborn calf serum/1% (v/v) 100× Invitrogen Cat #15240-062 Antibiotic-Antimycotic at 37° C. (i.e., the growth medium) in a humidified atmosphere with 5% CO2. The cells were seeded into 12.5 cm^2 tissue culture flasks at a concentration of 1.0×10^5 cells/mL. A 3-mL cell suspension (seed medium) was added to each flask. The test compounds were dissolved in dimethyl sulfoxide (DMSO) at a concentration of 0.5 M. This 0.5 M stock was used to prepare various concentrations of the test compounds in growth medium, with the final concentration of DMSO at 0.2% by weight. Growth medium with diluted test compound is referred to as the dose medium. The controls were treated in the same manner, but without the test compound. After 24 hrs of incubation, the seed medium was replaced with 3 mL of dose medium (growth medium with various concentrations of test samples or control compounds). The dose medium was […] day, and the incubation continued for an additional 2 days. The dose medium was removed. The cells were dissolved in 1 mL of 1 N NaOH during incubation at 80° C. for 10 min. Samples of extracted melanin were transferred to a 96-well plate, and the absorbance was read at 450 nm. Each experiment was repeated three times. Kojic acid, arbutin, and hydroquinone were used as positive controls.

[2] = test system: B16-F10 murine melanoma cells; test: Cell viability assay (MTT); type: cell-based
Protocol: After incubating the melanocytes with test samples or control compounds as mentioned above, 330 μL of a MTT solution (5 mg/mL MTT in standard medium with no added serum or antibiotic) was added. […] After orbital shaking for 10 min at room temperature, 1 mL of the contents of each flask was transferred to microfuge tubes and centrifuged for 10 min. 200 μL of each tube were then transferred to a 96-well plate, and the relative extent of MTT reduction was determined based on the absorbance at 590 nm. […] Kojic acid, arbutin, and hydroquinone were used as positive controls.

[3] = 0.5 mmol/L (footnote *), MTT, B16-F10 cells

| Compound | activity at 100 µM [1] [%] | activity at 500 µM [1] [%] | Cell Viability % of control ([2]; 0.1 mmol/L, MTT, B16-F10 cells) | activity at 1000 µM [1] [%] | Cell Viability % of control ([2]; 1.0 mmol/L, MTT, B16-F10 cells) | other results |
| --- | --- | --- | --- | --- | --- | --- |
| O=C(Sc1ncccn1)c1ccncc1 [Example 8, S-Pyrimidin-2′-yl Pyridine-4-carbothioate] | 70 | 38 | 92 % of control |  |  | Cell Viability % of control [2, 3]: 36* % of control |
| CC(=O)Sc1ncccn1 [Example 1, Pyrimidin-2-yl Thiolacetate] | 71 |  | 100 % of control | 33 | 6.6 % of control |  |
| COC(=O)CSc1ncccn1 [Comparative Example 1, Methyl 2-(pyrimidin-2′-ylthio)acetate, reference compound] | 115 |  | 114 % of control | 98 | 117 % of control |  |
| O=c1cc(CO)occ1O [Kojic acid, reference compound] | 94 |  |  | 86 |  | Cell Viability % of control ([2]; mouse, 0.1 mmol/L): 116 % of control; Cell Viability % of control ([2]; mouse, 1 mmol/L): 92 % of control |
| CC(C)(C)C(=O)Sc1ncccn1 [Example 5, Pyrimidin-2′-yl 2,2-Dimethylpropanethioate] | 66 |  | 91 % of control | 28 | 7 % of control |  |
| O=C(Sc1ncccn1)c1ccccc1 [Example 6, Pyrimidin-2-yl Thiolbenzoate] | 69 |  | 91 % of control | 39 | 69 % of control |  |
| O=C(Sc1ncccn1)c1cccnc1 [Example 7, S-Pyrimidin-2′-yl Pyridine-3-carbothioate] | 72 |  | 101 % of control | 27 | 3.5 % of control |  |
| OC[C@H]1O[C@@H](Oc2ccc(O)cc2)[C@H](O)[C@@H](O)[C@@H]1O [Arbutin, arbutin, reference compound] | 92 |  | 125 % of control | 83 | 134 % of control |  |
| COC(=O)CCSc1ncccn1 [Comparative Example 2, Methyl 3-(Pyrimidin-2′-ylthio)propionate, reference compound] | 98 | 96 | 88 % of control |  |  | Cell Viability % of control [2, 3]: 84* % of control |
| Sc1ncccn1 [2-Mercapto-Pyrimidine, 2-Mercaptopyrimidine, reference compound] |  | 35 |  |  |  | activity at 250 µM ([1]; 0.25 mmol/L): 42%; Cell Viability % of control ([2]; 0.25 mmol/L, MTT, B16-F10 cells, no replication): 81** % of control; Cell Viability % of control [2, 3]: 68* % of control |
| CCC(=O)Sc1ncccn1 [Example 2, Pyrimidin-2-yl Thiolpropionate] | 67 |  | 113 % of control | 36 | 13.6 % of control |  |
| CCOC(=O)Sc1ncccn1 [Example 3, O-Ethyl-5-pyrimidin-2-yl Monothiolcarbonate] | 81 |  | 87 % of control | 36 | 32 % of control |  |
| Oc1ccc(O)cc1 [Hydroquinone, hydroquinone, reference compound] |  | 33 |  |  |  | Cell Viability % of control ([2]; mouse, 0.5 mmol/L): 3* % of control |
